Measured values from patent US20040163143A1, “Method for efficiently producing transgenic plant using auxin precursor” (NIPPON PAPER INDUSTRIES CO., LTD., priority 2002, published 2004).

Experiments:
[1] = system: E. globulus hypocotyl sections; assay: E. globulus gene introduction test, vector pIPT10 (ipt only + GUS), adventitious bud redifferentiation and GUS staining; assay type: cell-based, Eucalyptus globulus; conditions: for B/A Redifferentiation ratio / C/A Gene introduction ratio / C/B Selection efficiency: section basis
Description: Seeds of E. globulus from Chile were sterilized by soaking in 70% ethanol for about 1 minute and then soaking with stirring in a 2% aqueous sodium hypochlorite solution for about 4 hours, washed thoroughly with sterile water, inoculated on an MS agar medium to which 0.5 mg/l zeatin had been added and stored in a refrigerator at 4° C. for 2 days to accelerate germination, and then the germination was carried out by culturing at 25° C. under light conditions of about 10 μmol/m^2/s in light intensity. One to two weeks after the inoculation of the seeds onto the germination medium, hypocotyls were collected by cutting out apical buds, cotyledons and roots of the germinated seedlings, and the hypocotyls were cut into sections of about 5 mm to be used as samples for gene introduction and subjected to the following test. A. tumefaciens EHA105 introduced with the plasmid pIAH6 in the above item I was cultured overnight in the YEB liquid medium and then diluted to OD630 =0.5 with EG basal medium, and the sections of hypocotyl prepared in the above were soaked in the cell suspension. Next, each of the sections after removing excess cell suspension was co-cultured with Agrobacterium on an agar medium (agar 8.5 g/l) prepared by adding 1.0 mg/l zeatin, 0.05 mg/l NAA and 40 mg/l acetosyringone to the EG basal medium, at 25° C. for 3 days in the dark to thereby infect each section with the pIAH6-introduced Agrobacterium. In this case, a modified MS medium having an ammonia nitrogen/nitrate nitrogen concentration ratio of 1:3 (5 mM NH4, 15 mM NO3) was supplemented with 20 g/l sucrose and used as the EG basal medium. The sections after infection culturing were put on an EG basal agar medium (agar 8.5 g/l) supplemented with 500 mg/l ticarcillin and 1 μM or 10 μM of an auxin precursor analogue NAM, and the culturing was continued at 25° C. under light conditions of 30 to 40 μmol/m^2/s in light intensity while sub-culturing at an interval of 2 weeks using the same medium. Among these sections, the quicker ones redifferentiated adventitious buds after about 2 months of the Agrobacterium infection. Three months after the Agrobacterium infection, in order to examine expression of the GUS gene used as a model of the desired gene, the redifferentiated adventitious buds were subjected to a GUS staining test in accordance with the method of Jefferson et al. (Plant Mol. Biol. Rep., 5: 387-405 (1987)), and the degree of formation of desired gene-introduced adventitious buds was judged by examining the number of stained adventitious buds (the number of adventitious buds expressing the desired gene). An E. globulus gene introduction test was carried out in the same manner as in Example 1, except that the hypocotyl sections after the Agrobacterium infection were cultured using the EG basal agar medium (agar 8.5 g/l) supplemented with 500 mg/l ticarcillin and 0 μM, 1 μM or 10 μM NAA as auxin. An E. globulus gene introduction test was carried out in the same manner as in Example 1 or Comparative Example 1, except that a plasmid pIPT10 having only the ipt gene as the selectable marker gene was used as the vector. Also, the vector also has the GUS gene as a model of the desired gene. Structure of T-DNA region of the pIPT10 used in this case is shown in FIG. 2, and results of the gene introduction test are shown in Table 3.

[2] = system: populus hybrid strain Y63 stem sections; assay: populus hybrid gene introduction test, vector pIAH6, adventitious bud redifferentiation and multiple bud observation; assay type: cell-based, Populus sieboldii×Populus grandidentata; conditions: for B Adventitious bud differentiated (number of sections): 10 sections tested; for B/A Redifferentiation ratio / C/A Gene introduction ratio / C/B Selection efficiency: section basis; for number of redifferentiated adventitious buds into which the desired gene was introduced / total number of adventitious buds redifferentiated: bud basis; for C GUS + adventitious bud differentiated (number of sections): sections with bud judged as a multiple bud after culturing for 4 months
Description: A transformant was produced by carrying out gene introduction into a populus hybrid (Populus sieboldii×Populus grandidentata) by the method of the present invention using the pIAH6 used in Example 1 as the vector. A stem of an aseptic seedling of a populus hybrid strain […] That is, the pIAH6-introduced A. tumefaciens LBA4404 obtained in the same manner as in Example 1 was cultured overnight in the YEB liquid medium and then diluted to OD630=0.5 with Y basal medium, and the stem sections prepared in the above were soaked in this cell suspension. Next, each of these sections after removing excess cell suspension was co-cultured with Agrobacterium on an agar medium (agar 8 g/l) prepared by adding 40 mg/l acetosyringone to the Y basal medium, at 25° C. for 3 days in the dark to thereby be infect with the pIAH6-introduced Agrobacterium. In this case, a modified MS medium (10 mM NH4, 30 mM NO3) was supplemented with 20 g/l sucrose and used as the Y basal medium. The sections after infection culturing were put on the Y basal agar medium (agar 8 g/l) supplemented with 500 mg/l ticarcillin and 1 μM, 5 μM or 30 μM of an auxin precursor analogue NAM, followed by culturing at 25° C. under light conditions of 30 to 40 μmol/m^2/s in light intensity. […] That is, since the ipt gene is not introduced into the escape, the adventitious bud was redifferentiated by mere influence of a desired gene-introduced cell which was present adjacent thereto.

`NC(=O)Cc1cccc2ccccc12` [NAM, naphthaleneacetic acid amide] was tested, and the “B Adventitious bud differentiated (number of sections)” value (“B Adventitious bud differentiated” for short) ([1]; additive 1 μM in medium) was 2 number of sections, the “C GUS + adventitious bud differentiated (number of sections)” value (“C GUS + adventitious bud differentiated” below) ([1]; additive 1 μM in medium) was 0 number of sections and the “B/A Redifferentiation ratio” value ([1]; additive 1 μM in medium) was 4.4%. For the same molecule, the “C/A Gene introduction ratio” value ([1]; additive 1 μM in medium) was 0.0%, the “C/B Selection efficiency” value ([1]; additive 1 μM in medium) was 0% and the “B Adventitious bud differentiated” value ([1]; additive 10 μM in medium) was 0 number of sections. The “C GUS + adventitious bud differentiated” value ([1]; additive 10 μM in medium) was 0 number of sections, the “B/A Redifferentiation ratio” value ([1]; additive 10 μM in medium) was 0% and the “C/A Gene introduction ratio” value ([1]; additive 10 μM in medium) was 0.0%. The “C/B Selection efficiency” value ([1]; additive 10 μM in medium) was 0%, the “B Adventitious bud differentiated” value ([2]; NAM 1 μM in medium) was 7 number of sections and the “B/A Redifferentiation ratio” value ([2]; NAM 1 μM in medium) was 70.0%. For the same molecule, the “C/A Gene introduction ratio” value ([2]; NAM 1 μM in medium) was 50.0%, the “C/B Selection efficiency” value ([2]; NAM 1 μM in medium) was 71.4% and the “number of redifferentiated adventitious buds into which the desired gene was introduced” value ([2]; NAM 1 μM) was 6. For the same molecule, the “total number of adventitious buds redifferentiated” value ([2]; NAM 1 μM) was 67, the “C GUS + adventitious bud differentiated” value ([2]; NAM 1 μM) was 5 number of sections and the “B Adventitious bud differentiated” value ([2]; NAM 5 μM in medium) was 6 number of sections. The “B/A Redifferentiation ratio” value ([2]; NAM 5 μM in medium) was 60.0%, the “C/A Gene introduction ratio” value ([2]; NAM 5 μM in medium) was 40.0% and the “C/B Selection efficiency” value ([2]; NAM 5 μM in medium) was 66.7%. The “number of redifferentiated adventitious buds into which the desired gene was introduced” value ([2]; NAM 5 μM) was 5, the “total number of adventitious buds redifferentiated” value ([2]; NAM 5 μM) was 34 and the “C GUS + adventitious bud differentiated” value ([2]; NAM 5 μM) was 4 number of sections. The “B Adventitious bud differentiated” value ([2]; NAM 30 μM in medium) was 0 number of sections, the “B/A Redifferentiation ratio” value ([2]; NAM 30 μM in medium) was 0% and the “C/A Gene introduction ratio” value ([2]; NAM 30 μM in medium) was 0%. For the same molecule, the “C/B Selection efficiency” value ([2]; NAM 30 μM in medium) was 0% and the “C GUS + adventitious bud differentiated” value ([2]; NAM 30 μM) was 0 number of sections.
